Data as given in US8324267B2, “Kinase inhibitors and the use thereof” (Forschungzentrum Karlsruhe GmbH, priority 2001, dated 2012).
“Also recorded” adds a separate entry of the source. Blank lines part the entries; values can stand above or below the molecule they belong to.

What was measured:
Assay type in all cases: cell-based
VEGFR-3 = VEGFR-3 (Homo sapiens, UniProt P35916); assay: Ligand-induced autophosphorylation in VEGFR-3-expressing PAE cells (immunoprecipitation, Western blot); settings: for inhibition of ligand-induced autophosphorylation of VEGFR-3: PAE/VEGFR-3 cells, VEGF-C stimulated, 0.5, 5 or 50 μM, FIG. 1
VEGFR-3, sequence (P35916 25-1363): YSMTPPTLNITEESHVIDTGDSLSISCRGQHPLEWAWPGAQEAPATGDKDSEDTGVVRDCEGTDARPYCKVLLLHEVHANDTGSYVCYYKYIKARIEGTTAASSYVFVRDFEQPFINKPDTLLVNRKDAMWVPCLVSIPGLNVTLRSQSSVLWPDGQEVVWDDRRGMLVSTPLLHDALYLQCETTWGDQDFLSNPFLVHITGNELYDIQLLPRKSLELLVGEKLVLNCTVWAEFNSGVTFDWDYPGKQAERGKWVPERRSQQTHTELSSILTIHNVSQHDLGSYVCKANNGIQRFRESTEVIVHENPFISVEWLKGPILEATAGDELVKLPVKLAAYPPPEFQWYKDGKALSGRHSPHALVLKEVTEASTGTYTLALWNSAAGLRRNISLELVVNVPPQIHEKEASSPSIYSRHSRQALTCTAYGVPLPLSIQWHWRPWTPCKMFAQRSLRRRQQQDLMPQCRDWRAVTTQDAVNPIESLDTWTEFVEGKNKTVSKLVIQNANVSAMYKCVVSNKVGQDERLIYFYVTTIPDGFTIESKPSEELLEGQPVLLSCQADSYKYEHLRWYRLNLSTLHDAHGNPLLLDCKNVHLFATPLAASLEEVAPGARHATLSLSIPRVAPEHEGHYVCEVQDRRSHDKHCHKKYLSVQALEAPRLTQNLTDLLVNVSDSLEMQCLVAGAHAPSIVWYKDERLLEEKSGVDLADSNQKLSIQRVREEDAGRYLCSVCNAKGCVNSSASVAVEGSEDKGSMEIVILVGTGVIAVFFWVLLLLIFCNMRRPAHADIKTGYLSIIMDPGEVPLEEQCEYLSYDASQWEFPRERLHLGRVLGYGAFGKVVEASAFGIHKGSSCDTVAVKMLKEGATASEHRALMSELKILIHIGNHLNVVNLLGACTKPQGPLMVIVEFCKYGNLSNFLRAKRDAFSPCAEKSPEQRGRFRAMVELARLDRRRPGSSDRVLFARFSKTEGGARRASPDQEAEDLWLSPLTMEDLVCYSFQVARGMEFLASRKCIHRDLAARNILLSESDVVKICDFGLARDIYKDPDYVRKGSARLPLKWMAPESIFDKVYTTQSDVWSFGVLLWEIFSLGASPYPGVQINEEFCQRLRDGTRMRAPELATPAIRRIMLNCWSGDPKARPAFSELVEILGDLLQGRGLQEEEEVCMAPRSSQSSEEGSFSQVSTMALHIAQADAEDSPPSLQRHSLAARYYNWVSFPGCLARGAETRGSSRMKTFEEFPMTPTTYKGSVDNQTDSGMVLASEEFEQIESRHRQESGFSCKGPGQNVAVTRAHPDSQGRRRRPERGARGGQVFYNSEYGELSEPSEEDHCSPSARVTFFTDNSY
Experimental: (§1) VEGFR-2- and VEGFR-3-expressing PAE cells (pig aorta endothel cells) were incubated with 0.5 μM, 5 μM or 50 μM of the appropriate test compound. The cells were then stimulated with VEGF (VEGFR-2) or VEGF-C (VEGFR-3) or without growth factor as negative control. The cells were harvested after 15 min and immunoprecipitated with VEGFR-2 or VEGFR-3. The immunoprecipitates were blotted after electrophoresis and investigated with anti-phosphotyrosine antibody. The blots were detached and investigated with VEGFR-2 or VEGFR-3 antibody to check the loading.
(§2) PAE/VEGFR-2 or PAE/VEGFR-3 were seeded in 15 cm tissue culture tissues and cultivated to 50% confluence. The cells were then starved in serum-free medium (with 0.2% BSA) for 16-24 h (PAE/VEGFR-3) or 72 h […]. After preincubation with 5 ml of 1 mM serum-free medium (1 mM Na3VO4) and various inhibitor concentrations for 30-60 min, the cells were stimulated at 37° C. for 5 min (VEGFR-3) or 8 min (VEGFR-2). The cells were then rapidly washed twice with ice-cold PBS (with 1 mM Na3VO4) and lysed with ice-cold modified RIPA buffer (30 mM Tris-HCl, pH 7.4, 150 mM NaCl, 1 mM EDTA, 0.5% (v/v) Triton X100, 0.5% (w/v) sodium deoxycholate, 10 mM NaF) freshly prepared with 1 mM PMSF, 0.1 U/ml aprotinin, 10 ng/ml leupeptin and 5 mM Na3VO4. The cells were harvested from the plate with the aid of a rubber policeman and collected in centrifuge tubes on ice. The lysates were solubilized by forcing through a syringe with a 25 G needle, and were centrifuged at 4° C./13 000 rpm for 15 min to remove insoluble constituents.
(§3) The clear lysates were incubated with 4 μg of anti-VEGFR-2 (C-1158, Santa Cruz) or […] at 4° C. overnight.
The receptor-antibody complex was precipitated by adding 30 μl of protein A-Sepharose (Amersham)/tube and incubating at 4° C. for a further 2 hours.
The Sepharose were then centrifuged at 4° C. for 1 min and washed three times with cold washing buffer (30 mM Tris-HCl, pH 7.4, 150 mM NaCl, 1 mM EDTA, 0.5% (v/v) Triton X100, 0.5% (w/v) sodium deoxycholate, 10 mM NaF) freshly prepared with 1 mM PMSF, 0.1 U/ml aprotinin, 10 ng/ml leupeptin and 5 mM Na3VO4. The remainder of the washing buffer was removed by aspiration through a syringe provided with a 27 G needle. The Sepharose beads were resuspended in 50 μl of SDS loading buffer, boiled and loaded onto a 6% […] gel. After the electrophoretic fractionation, the proteins were fixed on an appropriate membrane by Western blotting. The blots were investigated first with the aid of an anti-phosphotyrosine antibody (RC20:HRPO, Becton Dickinson) and then the first antibody was removed again in order to investigate the blot for the protein loading with specific anti-receptor antibodies. […]

[1] = test system: Human endothelial cells (HDMEC); assay: Apoptosis, Cell Death Detection ELISA (nucleosome ELISA); settings: 24 h, FIG. 5
Experimental: (§4) Human endothelial cells (HDMEC) and rat pancreatic tumor cells (1AS) were resuspended (10^5 cells/ml). 50 μl of cell suspension were seeded in 96-well cell culture plates and incubated at 37° C. for 24 h. The cells were then incubated with the stated concentrations of the various inhibitors for a further 24 h. The pro-apoptotic effect of the compounds was determined using the Cell Death Detection ELISA^plus kit (Roche Diagnostics GmbH, Mannheim) in accordance with the manufacturer's statements. The kit contains a photometric enzyme immunoassay for qualitative and quantitative in vitro determination of cytoplasmic histone-associated DNA fragments (mono- and oligo-nucleosomes) released through active cell death (apoptosis). […] The measurements relative to the untreated cells are plotted against the inhibitor concentration.
(§5) FIG. 5: Nucleosome ELISA test (Cell Death Detection ELISA). The extent of dead cells of the respective cell line is depicted (as relative absorption at 405 nm) in relation to the use of the inhibitors MAE87, MAE106 and MAZ51 and MAZ51-2.

[2] = test system: rat pancreatic tumor cells (1AS); assay: as above; settings: 1AS cells, 24 h; FIG. 5
Experimental: as §4, §5

VEGFR-2 = VEGFR-2 (Homo sapiens, UniProt P35968); assay: Ligand-induced autophosphorylation in VEGFR-2-expressing PAE cells (immunoprecipitation, Western blot); settings: PAE/VEGFR-2 cells, VEGF stimulated; 0.5, 5 or 50 μM; FIG. 1
VEGFR-2, sequence (P35968 20-1356): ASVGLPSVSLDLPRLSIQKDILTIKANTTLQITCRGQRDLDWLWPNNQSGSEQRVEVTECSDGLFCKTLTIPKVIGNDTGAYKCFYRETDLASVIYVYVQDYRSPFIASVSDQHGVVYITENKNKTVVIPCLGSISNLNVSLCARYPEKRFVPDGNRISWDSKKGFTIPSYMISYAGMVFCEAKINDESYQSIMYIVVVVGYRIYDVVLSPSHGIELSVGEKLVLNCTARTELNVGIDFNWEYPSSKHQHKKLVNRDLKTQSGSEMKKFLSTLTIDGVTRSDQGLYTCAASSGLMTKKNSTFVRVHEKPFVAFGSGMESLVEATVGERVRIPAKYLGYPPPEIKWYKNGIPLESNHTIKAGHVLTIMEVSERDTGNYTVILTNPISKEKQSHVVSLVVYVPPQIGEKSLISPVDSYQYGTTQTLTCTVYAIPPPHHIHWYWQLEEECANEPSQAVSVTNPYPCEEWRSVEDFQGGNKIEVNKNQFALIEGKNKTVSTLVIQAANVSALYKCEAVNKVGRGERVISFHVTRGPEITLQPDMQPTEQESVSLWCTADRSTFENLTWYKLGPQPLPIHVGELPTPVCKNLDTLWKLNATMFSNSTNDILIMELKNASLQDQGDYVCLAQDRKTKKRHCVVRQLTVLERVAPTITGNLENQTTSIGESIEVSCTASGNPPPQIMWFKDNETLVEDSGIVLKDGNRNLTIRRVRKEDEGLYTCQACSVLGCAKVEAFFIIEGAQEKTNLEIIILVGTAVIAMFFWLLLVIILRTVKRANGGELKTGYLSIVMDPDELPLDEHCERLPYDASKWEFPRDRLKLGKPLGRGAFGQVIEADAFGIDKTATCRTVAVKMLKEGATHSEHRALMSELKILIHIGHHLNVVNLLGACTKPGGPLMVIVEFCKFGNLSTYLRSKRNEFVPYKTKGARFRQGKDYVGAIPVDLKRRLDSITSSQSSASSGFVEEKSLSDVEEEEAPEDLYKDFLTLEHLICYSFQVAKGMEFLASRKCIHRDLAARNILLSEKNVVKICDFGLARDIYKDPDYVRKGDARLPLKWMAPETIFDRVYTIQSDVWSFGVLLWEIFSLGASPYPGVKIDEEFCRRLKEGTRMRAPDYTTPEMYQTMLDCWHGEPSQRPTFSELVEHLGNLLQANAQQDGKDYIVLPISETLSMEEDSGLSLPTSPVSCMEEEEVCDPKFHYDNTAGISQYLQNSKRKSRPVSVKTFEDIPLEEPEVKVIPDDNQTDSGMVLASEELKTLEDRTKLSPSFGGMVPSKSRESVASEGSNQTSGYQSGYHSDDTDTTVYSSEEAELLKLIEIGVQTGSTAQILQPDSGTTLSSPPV
Experimental: as §1, §2, §3
The receptor-antibody complex was precipitated by adding 30 μl of protein A-Sepharose (Amersham)/tube and incubating at 4° C. for a further 2 hours. […]

[3] = test system: rat tumor cell lines (ASML, 1AS, G, AT6.1, MTLN3, MTLY, NM081 and MT450); assay: Tumor cell proliferation, 3H-thymidine incorporation; settings: 2.5 μM or 10 μM, 24 h, FIG. 4
Experimental: Cells of the rat tumor cell line (Nestl et al., 2001, Cancer Research 61: 1569-1577) were cultivated in the presence of 1% DMSO (solvent control), 2.5 μM or 10 μM of the indolinone for 24 h. Tritiated thymidine was added to the medium during the last 4-6 h of incubation. The cells were harvested and the amount of radioactivity incorporated into the DNA was quantified.
The data are stated in percent relative to the proliferation of the cells treated only with DMSO (% relative to control; see FIG. 4)).
FIG. 4: Measurement of the (^3H)-thymidine incorporation (in %) into rat tumor cell lines (ASML, 1AS, G, AT6.1, MTLN3, MTLY, NM081 and MT450) as a function of the concentration of inhibitors employed. The inhibition of cell proliferation by MAE87, MAE106 and MAZ51 is dose-dependent.

Structure (SMILES): COc1ccc(C=C2C(=O)Nc3ccccc32)cc1F [MAE106, 3-(3-Fluoro-4-methoxybenzylidene)-1,3-dihydroindole-2-one]
- inhibition of ligand-induced autophosphorylation of VEGFR-3 (VEGFR-3): Inhibit the Ligand-Induced Autophosphorylation
- induction of apoptosis (relative absorption at 405 nm) [1]: Induced Apoptosis
- induction of apoptosis (relative absorption at 405 nm) [2]: Induced Apoptosis
- inhibition of ligand-induced autophosphorylation of VEGFR-2 (VEGFR-2): Inhibit the Ligand-Induced Autophosphorylation
- inhibition of tumor cell proliferation (3H-thymidine incorporation, % relative to control) [3]: dose-dependent

Structure (SMILES): O=C1Nc2ccccc2C1=Cc1ccc(O)cc1O [MAE87, 3-(2,4-Dihydroxybenzylidene)-1,3-dihydroindol-2-one]
- inhibition of ligand-induced autophosphorylation of VEGFR-3 (VEGFR-3): Inhibit the Ligand-Induced Autophosphorylation
- induction of apoptosis (relative absorption at 405 nm) [1]: Induced Apoptosis
- induction of apoptosis (relative absorption at 405 nm) [2]: Induced Apoptosis
- inhibition of ligand-induced autophosphorylation of VEGFR-2 (VEGFR-2): Inhibit the Ligand-Induced Autophosphorylation
- inhibition of tumor cell proliferation (3H-thymidine incorporation, % relative to control) [3]: dose-dependent

- selectivity of inhibition of autophosphorylation, VEGFR-3 versus VEGFR-2 (VEGFR-3; 5 μM, PAE cells): selectively inhibits VEGFR-3
Structure (SMILES): CN(C)c1ccc(C=C2C(=O)Nc3ccccc32)c2ccccc12 [MAZ51, 3-(4-Dimethylaminonaphthalen-1-ylmethylene)-1,3-dihydroindol-2-one]
- inhibition of ligand-induced autophosphorylation of VEGFR-3 (VEGFR-3): Inhibit the Ligand-Induced Autophosphorylation
- induction of apoptosis (relative absorption at 405 nm) [1]: potent activator of apoptosis
- induction of apoptosis (relative absorption at 405 nm) [2]: potent activator of apoptosis
- inhibition of ligand-induced autophosphorylation of VEGFR-2 (VEGFR-2): Inhibit the Ligand-Induced Autophosphorylation
- inhibition of tumor cell proliferation (3H-thymidine incorporation, % relative to control) [3]: greatest inhibitory effect; also recorded: dose-dependent
